Molecular target: T1, SmHPL1b (Selaginella moellendorffii, UniProt D8RF82)
T1 construct: gene CYP74L1; full ORF from genomic DNA in pET100/D-TOPO (tag kept), E. coli BL21 Star (DE3) membrane fraction
Experiment: decrease in absorbance at […] nm
Assay type: biochemical
Conditions: E. coli membrane fraction, MES-KOH pH 6.0, 25 °C (methods); optimum pH 5.5

T1 sequence (D8RF82 entry or part of it): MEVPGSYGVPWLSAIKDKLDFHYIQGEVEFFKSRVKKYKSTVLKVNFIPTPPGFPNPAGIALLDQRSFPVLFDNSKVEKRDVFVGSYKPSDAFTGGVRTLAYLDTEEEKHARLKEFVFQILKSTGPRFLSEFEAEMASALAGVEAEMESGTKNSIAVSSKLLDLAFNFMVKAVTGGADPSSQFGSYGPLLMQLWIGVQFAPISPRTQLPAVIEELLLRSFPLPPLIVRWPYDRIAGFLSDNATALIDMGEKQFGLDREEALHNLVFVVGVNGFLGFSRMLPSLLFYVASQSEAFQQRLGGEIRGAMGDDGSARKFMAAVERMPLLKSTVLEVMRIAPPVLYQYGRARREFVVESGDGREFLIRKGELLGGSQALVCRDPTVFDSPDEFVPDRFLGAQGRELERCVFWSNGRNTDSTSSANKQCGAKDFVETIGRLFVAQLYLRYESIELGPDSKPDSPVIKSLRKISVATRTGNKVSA

## CC/C=C\C[C@@H](/C=C/C=C\CCCCCCCC(=O)O)OO [13HPOT, (9Z,11E,15Z)-13-hydroperoxyoctadeca-9,11,15-trienoic acid]
  Km: 31.4 µM

— paper PMC8578206, “Green Leaf Volatile-Burst in Selaginella moellendorffii” (Frontiers in Plant Science, 2021)
